Converted amounts (≈) assume the structure as drawn. Like-named read-outs stand apart in the source and are kept apart here.

The test system of data set [1] is human colorectal cancer cell line HT29. The data set can be described thus: In vitro anti-cancer cell experiment (MTT), HT29. It counts as cell-based. The settings on record: for IC50: Homo sapiens, HT-29; for anti-proliferative effect on HT29: HT29, in words. As to the method: (§1) a. Cell lines: Human pancreatic cancer cell line Panc-1, human colorectal cancer cell line HT29 and human lung cancer cell line NCI—H460; the medium: s DMEM (Gibco BRL), containing 10% fetal calf serum (Gibco BRL) and 2 mM L-glutamine (Gibco BRL).
(§2) b. Test samples: example compounds 5, 9, 10, 22 and 24. The samples were dissolved in dimethyl sulfoxide (DMSO, Sigma, United States) and medium was added to the final concentration of 0.5%. Cisplatin was as positive control of (CDDP, purity 96%, from Kunming Institute of Precious Metals).
(§3) c. Method: cells were digested with trypsin and dispersed into single cells in the medium containing penicillin (25 U/ml) and streptomycin (25 μg/ml). The cells were seeded in 96-well culture plates (Corning Incorporated), at 37° C., in a humidified atmosphere with 5% CO2 present for 24 hours. The culture medium was removed, […] test compounds were added, cultured for 48 hours. Culture medium was removed and […] (MTT, USA Sigma products) was added. The result was assayed by SK601-based microplate reader (Japan Seikagaku company's products), 570 nm/630 nm optical density (OD).
(§4) Calculation of cell viability: (Experimental group OD/control OD)×100%; Positive control CDDP was treated in the same way.

In data set [2] the test system is human lung cancer cell line NCI-H460. Briefly: In vitro anti-cancer cell experiment (MTT), NCI-H460. Format: cell-based. As to the method: as §1, §2, §3, §4
The next data set has as its system mice sarcoma S180. Briefly: Growth inhibition of S180 sarcoma in mice. More on the design: Inhibition rate (%): concentration or dose not given beside the values. The settings on record: for Tumor weight / Inhibition rate (%): S180 sarcoma, Kunming mice, iv; for Inhibition rate (%): *P<0.01, **p<0.001 vs control; for anti-tumor efficacy, statistical significance: S180 sarcoma in mice, in words. It counts as in vivo, Kunming mice. As to the method: (§5) Test animals: Kunming kinds of healthy mice (19-21 g), 10 mice (5 male and 5 female)/group, from Beijing Institute of Military Medical Sciences Animal Center.
Tumor strains: mice sarcoma S180 for ascites passaged from Beijing Academy of Military Medical Institute of Pharmacology.
(§6) Xenografts cultured S180 tumor cells were implanted subcutaneously into the flank region of mice and tumors were allowed to grow to the desired average size of 100 mg. The mice were randomized into control and treatment groups with 10 mice per group. The control group was injected with the vehicle used to dissolve the drug. Other groups received the test compounds (example compound 5, 9, 10, 11, 13, 18, 19, 22, 24, 35, 306 and positive group, cyclophosphamide (CTX) and 5-fluorouracil (5-FU)) at the dose and schedule as indicated in Table VI. Injections were I.V. via the tail vein.

Data set [3] is described as follows: Body weight of S180 sarcoma-bearing mice. The settings on record: iv. As to the method: as §5, §6
The subject of data set [4] is Human pancreatic cancer cell line Panc-1. Briefly: In vitro anti-cancer cell experiment (MTT), Panc-1. Format: cell-based. To be noted: for anti-proliferative effect on Panc-1: Panc-1, in words. As for the experimental part: as §1, §2, §3, §4
Where [5] appears, read: HT29 cells, 48 hours, MTT, read-out: IC50 HT29.
Where [6] appears, read: NCI-H460 cells, 48 hours, MTT, read-out: IC50 NCI-H460.
[7] abbreviates: HT29, text value, P<0.05, read-out: IC50 (anti-proliferative effect on HT29).
[8] abbreviates: NCI-H460, text value, P<0.05, read-out: IC50 (anti-proliferative effect on NCI-H460).

On to `COC(=O)/C(C)=C\CC12OC(C)(C)[C@H]3C[C@@H](C=C4C(=O)c5c(OC(=O)c6ccc(O[C@@H]7O[C@@H]8COC(C)(C)O[C@H]8[C@H](O)[C@H]7O)cc6)c6c(c(CC=C(C)C)c5OC431)OC(C)(CCC=C(C)C)C=C6)C2=O` (stereo partly shown) [Compound 5], for which the IC50 in data set [1] (setting [5]) turned out to be 35.6 µg/mL (≈ 36.9 µM). Besides, the IC50 in data set [2] (setting [6]) amounted to 7.73 nM. For the same compound, in the data set with mice sarcoma S180, the “Tumor weight” value was 1.08 ± 0.63 g and the “Inhibition rate (%)” value is listed as 45** %. In data set [3] (mouse, in vivo), the “body Weight (g) After ad.” value came out at 27.39 ± 2.91 g and the “body Weight (g) Before ad.” value stood at 21.53 ± 1.77 g.
For `COC(=O)/C(C)=C\CC12OC(C)(C)C3CC(C1=O)C1C4=C(Nc5nccn51)c1c(O[C@H]5O[C@@H](CO)[C@H](O)[C@@H](O)[C@@H]5O)c5c(c(CC=C(C)C)c1OC432)OC(C)(CCC=C(C)C)C=C5` (stereo partly shown) [Compound 24], in data set [1], the “anti-proliferative effect on HT29” value was “showed anti-proliferative effect”. The concentration for half-maximal inhibition (IC50) in data set [1] (setting [5]) worked out at 54.1 µg/mL (≈ 62.2 µM). The “anti-proliferative effect on Panc-1” value in data set [4] was “showed anti-proliferative effect”. Further, the IC50 in data set [2] (setting [6]) came to 13.7 nM. In the data set on mice sarcoma S180, the “anti-tumor efficacy, statistical significance” value is reported as “statistically significant”; the “Tumor weight” value is reported as 0.65 ± 0.37 g; the “Inhibition rate (%)” value was 62.87** %. In data set [3] (mouse, in vivo), the “body Weight (g) After ad.” value turned out to be 27.61 ± 2.89 g and the “body Weight (g) Before ad.” value was determined as 20.71 ± 1.75 g.
With `O=c1[nH]cc(F)c(=O)[nH]1` [Compound 5-FU, 5-fluorouracil, reference compound], the concentration for half-maximal inhibition (IC50) in data set [1] (setting [5]) came to 14.4 µg/mL (≈ 110 µM). Besides, in the data set with mice sarcoma S180, the “Tumor weight” value turned out to be 1.18 ± 0.49 g and the “Inhibition rate (%)” value was 42.8* %. Also, in data set [3] (mouse, in vivo), the “body Weight (g) After ad.” value amounted to 28.55 ± 2.38 g and the “body Weight (g) Before ad.” value stood at 22.59 ± 1.46 g.
On to `COC(=O)/C(C)=C\CC12OC(C)(C)C3CC(C1=O)C(N1CCOCC1)C1C(=O)c4c(OC(=O)CCl)c5c(c(CC=C(C)C)c4OC132)OC(C)(CCC=C(C)C)C=C5` (stereo not shown) [Compound 13], for which, in the data set on mice sarcoma S180, the “Tumor weight” value is given as 1.06 ± 0.70 g and the “Inhibition rate (%)” value is reported as 45** %. Moreover, in data set [3] (mouse, in vivo), the “body Weight (g) After ad.” value came out at 27.59 ± 2.52 g and the “body Weight (g) Before ad.” value came out at 21.76 ± 1.93 g.
Take `COC(=O)/C(C)=C\CC12OC(C)(C)C3CC(C1=O)C1C4=C(c5ccccc5C4=O)N(CCN)C4=C1C32Oc1c(CC=C(C)C)c2c(c(O)c14)C=CC(C)(CCC=C(C)C)O2` (stereo not shown) [Compound 22]: in data set [1], the “anti-proliferative effect on HT29” value was “showed anti-proliferative effect”. The half-maximal inhibitory concentration (IC50) is 3.62 µg/mL (≈ 4.45 µM) in data set [1] (setting [7]); 3.62 µg/mL (≈ 4.45 µM) in data set [1] (setting [5]); 3.26 µg/mL (≈ 4.01 µM) in data set [4] (Homo sapiens, Panc-1, text value, P<0.05, read-out: IC50 (anti-proliferative effect on Panc-1)); 4.73 µg/mL in data set [2] (setting [8]); 4.89 nM in data set [2] (setting [6]). Also, the “anti-proliferative effect on Panc-1” value in data set [4] is on record as “showed anti-proliferative effect”. Also, the “anti-tumor efficacy, statistical significance” value in the data set with mice sarcoma S180 is “statistically significant”. In addition, the “Tumor weight” value in the data set with mice sarcoma S180 is given as 0.88 ± 0.37 g. For the same compound, the “Inhibition rate (%)” value in the data set with mice sarcoma S180 was 53.19** %. In addition, the “body Weight (g) After ad.” value in data set [3] (mouse, in vivo) worked out at 25.77 ± 2.33 g. Besides, the “body Weight (g) Before ad.” value in data set [3] (mouse, in vivo) was 19.34 ± 0.81 g.
As to `COC(=O)/C(C)=C\CC12OC(C)(C)C3CC(C1=O)C1C4=C(Nc5nccn51)c1c(O)c5c(c(CC=C(C)C)c1OC432)OC(C)(CCC=C(C)C)C=C5` (stereo not shown) [Compound 9], the “anti-proliferative effect on HT29” value in data set [1] was “showed anti-proliferative effect”. Also, the half-inhibitory concentration (IC50) in data set [1] (setting [7]) came to 1.03 µg/mL (≈ 1.46 µM); in data set [1] (setting [5]) it was 1.03 µg/mL (≈ 1.46 µM); in data set [2] (setting [8]) it was 6.18 µg/mL; in data set [2] (setting [6]), 3.38 nM. Further, the “anti-proliferative effect on Panc-1” value in data set [4] is reported as “showed anti-proliferative effect”. Besides, the “anti-tumor efficacy, statistical significance” value in the data set with mice sarcoma S180 is on record as “statistically significant”. In addition, in the data set with mice sarcoma S180, the “Tumor weight” value was 0.56 ± 0.13 g. For the same compound, in the data set on mice sarcoma S180, the “Inhibition rate (%)” value is 70.21** %. Also, the “body Weight (g) After ad.” value in data set [3] (mouse, in vivo) is reported as 23.58 ± 1.86 g. In addition, in data set [3] (mouse, in vivo), the “body Weight (g) Before ad.” value is given as 20.53 ± 1.16 g.
With `COC(=O)/C(C)=C\CC12OC(C)(C)C3CC(C1=O)C1C4=C(Nc5nccn51)c1c(OCCNCCO)c5c(c(CC=C(C)C)c1OC432)OC(C)(CCC=C(C)C)C=C5` (stereo not shown) [Compound 35], in the data set on mice sarcoma S180, the “anti-tumor efficacy, statistical significance” value is given as “statistically significant”; the “Tumor weight” value is recorded as 0.78 ± 0.33 g; the “Inhibition rate (%)” value is recorded as 59.25** %. Further, in data set [3] (mouse, in vivo), the “body Weight (g) After ad.” value amounted to 26.86 ± 1.81 g and the “body Weight (g) Before ad.” value came to 20.08 ± 1.92 g.
Take `COC(=O)/C(C)=C\CC12OC(C)(C)C3CC(C1=O)C1C4=C(Nc5ncnn51)c1c(O)c5c(c(CC=C(C)C)c1OC432)OC(C)(CCC=C(C)C)C=C5` (stereo not shown) [Compound 18]: in the data set on mice sarcoma S180, the “Tumor weight” value is listed as 1.42 ± 0.52 g and the “Inhibition rate (%)” value is listed as 25.26%. In data set [3] (mouse, in vivo), the “body Weight (g) After ad.” value came to 27.37 ± 3.92 g and the “body Weight (g) Before ad.” value is given as 20.16 ± 0.90 g.
For `O=P1(N(CCCl)CCCl)NCCCO1` (stereo not shown) [CTX, cyclophosphamide, reference compound], in the data set on mice sarcoma S180, the “Tumor weight” value is on record as 1.02 ± 0.88 g and the “Inhibition rate (%)” value is recorded as 46.5* %. In data set [3] (after administration, S180 mice), the “body Weight (g) After ad.” value was found to be 26.32 ± 3.58 g. The “body Weight (g) Before ad.” value in data set [3] (before administration, S180 mice) came out at 21.48 ± 1.60 g.
Regarding `COC(=O)/C(C)=C\CC12OC(C)(C)C3CC(C1=O)C1C4=C(Nc5nc6ccccc6n51)c1c(O)c5c(c(CC=C(C)C)c1OC432)OC(C)(CCC=C(C)C)C=C5` (stereo not shown) [Compound 10], in data set [1], the “anti-proliferative effect on HT29” value is “showed anti-proliferative effect”. In addition, in data set [1] (setting [5]), the IC50 turned out to be 38.3 µg/mL (≈ 50.6 µM). Moreover, the “anti-proliferative effect on Panc-1” value in data set [4] is “showed anti-proliferative effect”. The IC50 in data set [2] (setting [6]) was 17.2 nM. In addition, in the data set with mice sarcoma S180, the “Tumor weight” value came out at 1.24 ± 0.73 g and the “Inhibition rate (%)” value is on record as 39.36* %. Besides, in data set [3] (mouse, in vivo), the “body Weight (g) After ad.” value is listed as 25.12 ± 4.64 g and the “body Weight (g) Before ad.” value turned out to be 20.32 ± 1.22 g.
For `COC(=O)/C(C)=C\CC12OC(C)(C)C3CC(C=C4C(=O)c5c(OC(=O)CCC(=O)N6CCN(C)CC6)c6c(c(CC=C(C)C)c5OC431)OC(C)(CCC=C(C)C)C=C6)C2=O` (stereo not shown) [Compound 11], in the data set on mice sarcoma S180, the “Tumor weight” value amounted to 1.35 ± 0.59 g and the “Inhibition rate (%)” value is listed as 31.01* %. In data set [3] (mouse, in vivo), the “body Weight (g) After ad.” value is on record as 26.30 ± 3.62 g and the “body Weight (g) Before ad.” value is 19.92 ± 1.47 g.
Taken in the same sequence, the figures for `COC(=O)/C(C)=C\CC12OC(C)(C)C3CC(C1=O)C1C4=C(c5ccccc5C4=O)N4CCNC45c4c(O)c6c(c(CC=C(C)C)c4OC32C15)OC(C)(CCC=C(C)C)C=C6` (stereo not shown) [Compound 306] were 1.29 ± 0.49 g, 36.77* %, 26.98 ± 3.02 g and 20.75 ± 1.33 g.

These data come from patent US20130039904A1, “GAMBOGIC ACID CYCLIZATION ANALOGUES, THEIR PREPARATION METHOD AND APPLICATION THEREOF” (Liaoning Lifeng Scientific & Technology Development Company …, priority 2009, published 2013).
